Legend:
[1] = Cytotoxicity against mouse EAC; type: functional, cell-based; details: Ehrlich
[2] = Cytotoxicity against sea urchin egg; type: functional, Strongylocentrotus intermedius

C=C[C@]1(C)C=C2C(=O)C[C@@H]3[C@](C)(CCC(=O)[C@]3(C)CO[C@@H]3O[C@H](CO)[C@@H](O)[C@@H](O)[C@@H]3O)[C@H]2CC1
IC50 [1]: 25 µM | IC50 [2]: 100 µM

C=C[C@]1(C)C=C2[C@H](O)C[C@@H]3[C@](C)(CCC(=O)[C@]3(C)CO[C@@H]3O[C@H](CO)[C@@H](O)[C@@H](O)[C@@H]3O)[C@H]2CC1
IC50 [1]: 25 µM | IC50 [2]: 100 µM

C=C[C@@]1(C)CCC2=C(C1)C(=O)C[C@H]1[C@@](C)(CO[C@@H]3O[C@H](CO)[C@@H](O)[C@@H](O)[C@@H]3O)C(=O)CC[C@]21C
IC50 [1]: 25 µM | IC50 [2]: 100 µM

C=C[C@@]1(C)CC[C@H]2C(=CC[C@@H]3[C@]2(C)C[C@@H](O)[C@H](O)[C@]3(C)CO[C@@H]2O[C@H](CO[C@H]3O[C@H](CO)[C@@H](O)[C@H](O)[C@H]3O)[C@@H](O)[C@@H](O)[C@@H]2O)C1 [VIRESCENOSIDE R]
IC50 [1]: 25 µM | IC50 [2]: 100 µM

Reference: ChEMBL document CHEMBL1151239, “New glycosides of the fungus Acremonium striatisporum isolated from a sea cucumber” (J Nat Prod, 2004)
